# Data from ChEMBL document CHEMBL3044945, “Synthesis of 1,3,5-trisubstituted pyrazoline nucleus containing compounds and screening for antimicrobial activity” (2012).
# Tests used:
# Type in all cases: functional
# [1] = test system: Bacillus subtilis; experiment: Antibacterial activity against Bacillus subtilis MTCC 441 at 250 ug/ml after 48 hr by cup-plate method; conditions: MTCC 441, 48 h, read-out: DIZ
# [2] = test system: Penicillium chrysogenum; experiment: Antifungal activity against Penicillium chrysogenum MTCC 161 at 750 ug/ml after 48 hr by cup-plate method; conditions: MTCC 161, 48 h, read-out: DIZ
# [3] = test system: Escherichia coli; experiment: Antibacterial activity against Escherichia coli MTCC 1573 at 100 ug/ml after 48 hr by cup-plate method; conditions: MTCC 1573, 48 h, read-out: DIZ
# [4] = test system: Penicillium chrysogenum; experiment: Antifungal activity against Penicillium chrysogenum MTCC 161 at 1250 ug/ml after 48 hr by cup-plate method; conditions: MTCC 161, 48 h, read-out: DIZ
# [5] = test system: Staphylococcus aureus; experiment: Antibacterial activity against Staphylococcus aureus MTCC 1430 after 24 to 48 hr by tube dilution method
# [6] = test system: Micrococcus luteus; experiment: Antibacterial activity against Micrococcus luteus MTCC 1538 at 1250 ug/ml after 48 hr by cup-plate method; conditions: MTCC 1538, 48 h, read-out: DIZ
# [7] = test system: Bacillus subtilis; experiment: Antibacterial activity against Bacillus subtilis MTCC 441 at 1250 ug/ml after 48 hr by cup-plate method; conditions: MTCC 441, 48 h, read-out: DIZ
# [8] = test system: Escherichia coli; experiment: Antibacterial activity against Escherichia coli MTCC 1573 after 24 to 48 hr by tube dilution method
# [9] = test system: Escherichia coli; experiment: Antibacterial activity against Escherichia coli MTCC 1573 at 750 ug/ml after 48 hr by cup-plate method; conditions: MTCC 1573, 48 h, read-out: DIZ
# [10] = test system: Penicillium chrysogenum; experiment: Antifungal activity against Penicillium chrysogenum MTCC 161 at 500 ug/ml after 48 hr by cup-plate method; conditions: MTCC 161, 48 h, read-out: DIZ
# [11] = test system: Bacillus pumilus; experiment: Antibacterial activity against Bacillus pumilus MTCC 1456 at 250 ug/ml after 48 hr by cup-plate method; conditions: MTCC 1456, 48 h, read-out: DIZ
# [12] = test system: Pseudomonas aeruginosa; experiment: Antibacterial activity against Pseudomonas aeruginosa MTCC 424 after 24 to 48 hr by tube dilution method
# [13] = test system: Penicillium chrysogenum; experiment: Antifungal activity against Penicillium chrysogenum MTCC 161 at 100 ug/ml after 48 hr by cup-plate method; conditions: MTCC 161, 48 h, read-out: DIZ
# [14] = test system: Pseudomonas fluorescens; experiment: Antibacterial activity against Pseudomonas fluorescens MTCC 2421 at 1000 ug/ml after 48 hr by cup-plate method; conditions: MTCC 2421, 48 h, read-out: DIZ
# [15] = test system: Staphylococcus aureus; experiment: Antibacterial activity against Staphylococcus aureus MTCC 1430 at 750 ug/ml after 48 hr by cup-plate method; conditions: MTCC 1430, 48 h, read-out: DIZ
# [16] = test system: Aspergillus niger; experiment: Antifungal activity against Aspergillus niger MTCC 2546 at 250 ug/ml after 48 hr by cup-plate method; conditions: MTCC 2546, 48 h, read-out: DIZ
# [17] = test system: Pseudomonas fluorescens; experiment: Antibacterial activity against Pseudomonas fluorescens MTCC 2421 at 250 ug/ml after 48 hr by cup-plate method; conditions: MTCC 2421, 48 h, read-out: DIZ
# [18] = test system: Aspergillus niger; experiment: Antifungal activity against Aspergillus niger MTCC 2546 at 500 ug/ml after 48 hr by cup-plate method; conditions: MTCC 2546, 48 h, read-out: DIZ
# [19] = test system: Bacillus subtilis; experiment: Antibacterial activity against Bacillus subtilis MTCC 441 at 1000 ug/ml after 48 hr by cup-plate method; conditions: MTCC 441, 48 h, read-out: DIZ
# [20] = test system: Bacillus pumilus; experiment: Antibacterial activity against Bacillus pumilus MTCC 1456 after 24 to 48 hr by tube dilution method
# [21] = test system: Bacillus pumilus; experiment: Antibacterial activity against Bacillus pumilus MTCC 1456 at 1000 ug/ml after 48 hr by cup-plate method; conditions: MTCC 1456, 48 h, read-out: DIZ
# [22] = test system: Pseudomonas fluorescens; experiment: Antibacterial activity against Pseudomonas fluorescens MTCC 2421 after 24 to 48 hr by tube dilution method
# [23] = test system: Aspergillus niger; experiment: Antifungal activity against Aspergillus niger MTCC 2546 after 24 to 48 hr by tube dilution method
# [24] = test system: Micrococcus luteus; experiment: Antibacterial activity against Micrococcus luteus MTCC 1538 at 750 ug/ml after 48 hr by cup-plate method; conditions: MTCC 1538, 48 h, read-out: DIZ
# [25] = test system: Staphylococcus aureus; experiment: Antibacterial activity against Staphylococcus aureus MTCC 1430 at 1000 ug/ml after 48 hr by cup-plate method; conditions: MTCC 1430, 48 h, read-out: DIZ
# [26] = test system: Bacillus pumilus; experiment: Antibacterial activity against Bacillus pumilus MTCC 1456 at 750 ug/ml after 48 hr by cup-plate method; conditions: MTCC 1456, 48 h, read-out: DIZ
# [27] = test system: Pseudomonas aeruginosa; experiment: Antibacterial activity against Pseudomonas aeruginosa MTCC 424 at 500 ug/ml after 48 hr by cup-plate method; conditions: MTCC 424, 48 h, read-out: DIZ
# [28] = test system: Pseudomonas fluorescens; experiment: Antibacterial activity against Pseudomonas fluorescens MTCC 2421 at 100 ug/ml after 48 hr by cup-plate method; conditions: MTCC 2421, 48 h, read-out: DIZ
# [29] = test system: Pseudomonas fluorescens; experiment: Antibacterial activity against Pseudomonas fluorescens MTCC 2421 at 1250 ug/ml after 48 hr by cup-plate method; conditions: MTCC 2421, 48 h, read-out: DIZ
# [30] = test system: Pseudomonas aeruginosa; experiment: Antibacterial activity against Pseudomonas aeruginosa MTCC 424 at 250 ug/ml after 48 hr by cup-plate method; conditions: MTCC 424, 48 h, read-out: DIZ
# [31] = test system: Staphylococcus aureus; experiment: Antibacterial activity against Staphylococcus aureus MTCC 1430 at 250 ug/ml after 48 hr by cup-plate method; conditions: MTCC 1430, 48 h, read-out: DIZ
# [32] = test system: Bacillus subtilis; experiment: Antibacterial activity against Bacillus subtilis MTCC 441 at 750 ug/ml after 48 hr by cup-plate method; conditions: MTCC 441, 48 h, read-out: DIZ
# [33] = test system: Staphylococcus aureus; experiment: Antibacterial activity against Staphylococcus aureus MTCC 1430 at 500 ug/ml after 48 hr by cup-plate method; conditions: MTCC 1430, 48 h, read-out: DIZ
# [34] = test system: Pseudomonas aeruginosa; experiment: Antibacterial activity against Pseudomonas aeruginosa MTCC 424 at 100 ug/ml after 48 hr by cup-plate method; conditions: MTCC 424, 48 h, read-out: DIZ
# [35] = test system: Bacillus pumilus; experiment: Antibacterial activity against Bacillus pumilus MTCC 1456 at 500 ug/ml after 48 hr by cup-plate method; conditions: MTCC 1456, 48 h, read-out: DIZ
# [36] = test system: Pseudomonas aeruginosa; experiment: Antibacterial activity against Pseudomonas aeruginosa MTCC 424 at 750 ug/ml after 48 hr by cup-plate method; conditions: MTCC 424, 48 h, read-out: DIZ
# [37] = test system: Micrococcus luteus; experiment: Antibacterial activity against Micrococcus luteus MTCC 1538 after 24 to 48 hr by tube dilution method
# [38] = test system: Pseudomonas fluorescens; experiment: Antibacterial activity against Pseudomonas fluorescens MTCC 2421 at 500 ug/ml after 48 hr by cup-plate method; conditions: MTCC 2421, 48 h, read-out: DIZ
# [39] = test system: Escherichia coli; experiment: Antibacterial activity against Escherichia coli MTCC 1573 at 250 ug/ml after 48 hr by cup-plate method; conditions: MTCC 1573, 48 h, read-out: DIZ
# [40] = test system: Micrococcus luteus; experiment: Antibacterial activity against Micrococcus luteus MTCC 1538 at 1000 ug/ml after 48 hr by cup-plate method; conditions: MTCC 1538, 48 h, read-out: DIZ
# [41] = test system: Penicillium chrysogenum; experiment: Antifungal activity against Penicillium chrysogenum MTCC 161 after 24 to 48 hr by tube dilution method
# [42] = test system: Aspergillus niger; experiment: Antifungal activity against Aspergillus niger MTCC 2546 at 1000 ug/ml after 48 hr by cup-plate method; conditions: MTCC 2546, 48 h, read-out: DIZ
# [43] = test system: Pseudomonas fluorescens; experiment: Antibacterial activity against Pseudomonas fluorescens MTCC 2421 at 750 ug/ml after 48 hr by cup-plate method; conditions: MTCC 2421, 48 h, read-out: DIZ
# [44] = test system: Escherichia coli; experiment: Antibacterial activity against Escherichia coli MTCC 1573 at 1000 ug/ml after 48 hr by cup-plate method; conditions: MTCC 1573, 48 h, read-out: DIZ
compound,measurement,setting,value
O=[N+]([O-])c1ccc(C2CC(c3cccc4ccccc34)=NN2c2ccc([N+](=O)[O-])cc2)cc1 (centres undefined),zone of inhibition at 250 µg/mL,[1],12 mm
same,zone of inhibition at 750 µg/mL,[2],14 mm
same,zone of inhibition at 100 µg/mL,[3],10 mm
same,zone of inhibition at 1250 µg/mL,[4],17 mm
same,MIC,[5],200 µg/mL
same,zone of inhibition at 1250 µg/mL,[6],15 mm
same,zone of inhibition at 1250 µg/mL,[7],19 mm
same,MIC,[8],50 µg/mL
same,zone of inhibition at 750 µg/mL,[9],13 mm
same,zone of inhibition at 500 µg/mL,[10],12 mm
same,zone of inhibition at 250 µg/mL,[11],8 mm
same,MIC,[12],30 µg/mL
same,zone of inhibition at 100 µg/mL,[13],9 mm
same,zone of inhibition at 1000 µg/mL,[14],18 mm
same,zone of inhibition at 750 µg/mL,[15],11 mm
same,zone of inhibition at 250 µg/mL,[16],13 mm
same,zone of inhibition at 250 µg/mL,[17],10 mm
same,zone of inhibition at 500 µg/mL,[18],14 mm
same,zone of inhibition at 1000 µg/mL,[19],17 mm
same,MIC,[20],50 µg/mL
same,zone of inhibition at 1000 µg/mL,[21],18 mm
same,MIC,[22],30 µg/mL
same,MIC,[23],30 µg/mL
same,zone of inhibition at 750 µg/mL,[24],12 mm
same,zone of inhibition at 1000 µg/mL,[25],12 mm
same,zone of inhibition at 750 µg/mL,[26],15 mm
same,zone of inhibition at 500 µg/mL,[27],11 mm
same,zone of inhibition at 100 µg/mL,[28],9 mm
same,zone of inhibition at 1250 µg/mL,[29],21 mm
same,zone of inhibition at 250 µg/mL,[30],10 mm
same,zone of inhibition at 250 µg/mL,[31],9 mm
same,zone of inhibition at 750 µg/mL,[32],15 mm
same,zone of inhibition at 500 µg/mL,[33],10 mm
same,zone of inhibition at 100 µg/mL,[34],9 mm
same,zone of inhibition at 500 µg/mL,[35],10 mm
same,zone of inhibition at 750 µg/mL,[36],13 mm
same,MIC,[37],150 µg/mL
same,zone of inhibition at 500 µg/mL,[38],11 mm
same,zone of inhibition at 250 µg/mL,[39],11 mm
same,zone of inhibition at 1000 µg/mL,[40],13 mm
same,MIC,[41],50 µg/mL
same,zone of inhibition at 1000 µg/mL,[42],20 mm
same,zone of inhibition at 750 µg/mL,[43],14 mm
same,zone of inhibition at 1000 µg/mL,[44],15 mm
